Read-outs that look alike come from different tables or passages of the source.
Legend:
Type in all cases: biochemical
[1] = target: T1, JAK1 (aa 850-1154, catalytic domain, GST-tag) (Homo sapiens, UniProt P23458); assay: JAK kinase assay (HTRF, phosphorylation of TK substrate-biotin), JAK1; details: ATP at Km (7 μM)
T1 construct: JAK1 (aa 850-1154) and TYK2 (aa 871-1187) are expressed with an N-terminally fused GST-tag; GST (N); purchased Carna Biosciences, Inc; host or cells: baculovirus expression system
T1 sequence (P23458 850-1154): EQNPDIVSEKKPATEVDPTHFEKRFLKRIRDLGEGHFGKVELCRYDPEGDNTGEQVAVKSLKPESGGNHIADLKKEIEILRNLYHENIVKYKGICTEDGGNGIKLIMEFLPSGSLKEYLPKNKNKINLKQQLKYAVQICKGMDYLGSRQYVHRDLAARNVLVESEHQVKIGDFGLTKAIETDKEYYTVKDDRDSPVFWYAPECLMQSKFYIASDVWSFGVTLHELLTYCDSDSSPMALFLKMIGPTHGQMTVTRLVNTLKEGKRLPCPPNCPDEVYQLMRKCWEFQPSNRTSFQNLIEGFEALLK
Method: (§1) Human baculovirus-expressed JAK1, 2, 3 and TYK2 were purchased from Carna Biosciences, Inc. All four purified enzymes contain only the catalytic domain. JAK1 (aa 850-1154) and TYK2 (aa 871-1187) are expressed with an N-terminally fused GST-tag, and JAK2 and JAK3 with an N-terminally fused His-tag.
(§2) Inhibition of phosphorylation of a synthetic peptide was measured in an HTRF-based assay using the TK substrate-Biotin from the Cisbio HTRFKinEASE TK kit. First, 2 μl of TK solution (TK substrate-biotin in kinase buffer [1× enzymatic buffer from HTRFKinEASE TK kit, 1 mM DTT]) is added to a plate containing 1 μl prediluted compound (final assay concentration DMSO: 0.75%). Then, 5 μl kinase-ATP mix (prepared in kinase buffer) is added to the wells and the plates are incubated at RT for 20-30 min. For all four kinases a concentration of ATP that corresponded to the Km for ATP was used. The final concentrations of buffers, substrate, kinase and ATP were: JAK1: 50 mM Hepes buffer pH 7.0, 0.01% BSA, 10 mM MgCl2, 1 mM DTT, 7 μM ATP, 50 nM SEB, 1 μM TK Substrate-Biotin and 5 ng JAK1; JAK2: 50 mM Hepes buffer pH 7.0, 0.01% BSA, 5 mM MgCl2, 1 mM DTT, 4 μM ATP, 1 μM TK Substrate-Biotin and 0.1 ng JAK2; JAK3: 50 mM Hepes buffer pH 7.0, 0.01% BSA, 5 mM MgCl2, 1 mM DTT, 2 μM ATP, 1 μM TK Substrate-Biotin and 0.3 ng JAK3; TYK2: 50 mM Hepes buffer pH 7.0, 0.01% BSA, 5 mM MgCl2, 1 mM DTT, 13 μM ATP, 50 nM SEB, 1 μM TK Substrate-Biotin and 0.8 ng TYK2. Thereafter, the kinase reaction is stopped by adding 4 μl detection mix (final concentrations: 50 mM Hepes buffer pH 7.0, 0.01% BSA, 0.8 M KF, 20 mM EDTA, 42 nM Streptavidin-XL665 and 1:400 STK Ab Cryptate) and the plates are incubated overnight in the dark. The HTRF signal is read using an Envision plate reader.
(§3) In Table 1 selected JAK kinase inhibitory activities are listed with the following indicators: I: EC50<100 nM, II: 100 nM≦EC50≦500 nM and III: EC50>500 nM

[2] = target: T2, JAK2 (catalytic domain, His-tag) (Homo sapiens, UniProt O60674); assay: JAK kinase assay (HTRF, phosphorylation of TK substrate-biotin), JAK2; details: ATP at Km (4 μM)
T2 construct: All four purified enzymes contain only the catalytic domain; His (N); purchased Carna Biosciences, Inc; host or cells: baculovirus expression system
T2 sequence (O60674 849-1124 limits assumed): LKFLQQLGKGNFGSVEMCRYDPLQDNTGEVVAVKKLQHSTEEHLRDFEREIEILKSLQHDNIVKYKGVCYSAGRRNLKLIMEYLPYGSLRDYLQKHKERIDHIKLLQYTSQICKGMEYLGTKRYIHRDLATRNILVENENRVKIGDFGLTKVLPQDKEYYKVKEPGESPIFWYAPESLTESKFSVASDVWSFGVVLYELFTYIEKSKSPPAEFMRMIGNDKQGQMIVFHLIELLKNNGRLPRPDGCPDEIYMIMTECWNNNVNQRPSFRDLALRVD
Method: as §1, §2, §3

[3] = target: T3, JAK3 (catalytic domain, His-tag) (Homo sapiens, UniProt P52333); assay: JAK kinase assay (HTRF, phosphorylation of TK substrate-biotin), JAK3; details: ATP at Km (2 μM)
T3 construct: All four purified enzymes contain only the catalytic domain; His (N); purchased Carna Biosciences, Inc; host or cells: baculovirus expression system
T3 sequence (P52333 822-1111 limits assumed): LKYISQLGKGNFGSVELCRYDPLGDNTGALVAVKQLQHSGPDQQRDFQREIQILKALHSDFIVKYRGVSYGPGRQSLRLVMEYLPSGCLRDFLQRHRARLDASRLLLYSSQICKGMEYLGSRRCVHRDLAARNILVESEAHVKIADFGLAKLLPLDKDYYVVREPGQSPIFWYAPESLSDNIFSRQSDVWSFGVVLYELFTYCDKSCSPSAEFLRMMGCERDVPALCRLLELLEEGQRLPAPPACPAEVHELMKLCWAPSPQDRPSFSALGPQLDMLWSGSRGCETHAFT
Method: as §1, §2, §3

[4] = target: T4, TYK2 (aa 871-1187, catalytic domain, GST-tag) (Homo sapiens, UniProt P29597); assay: JAK kinase assay (HTRF, phosphorylation of TK substrate-biotin), TYK2; details: ATP at Km (13 μM)
T4 construct: JAK1 (aa 850-1154) and TYK2 (aa 871-1187) are expressed with an N-terminally fused GST-tag; GST (N); purchased Carna Biosciences, Inc; host or cells: baculovirus expression system
T4 sequence (P29597 871-1187): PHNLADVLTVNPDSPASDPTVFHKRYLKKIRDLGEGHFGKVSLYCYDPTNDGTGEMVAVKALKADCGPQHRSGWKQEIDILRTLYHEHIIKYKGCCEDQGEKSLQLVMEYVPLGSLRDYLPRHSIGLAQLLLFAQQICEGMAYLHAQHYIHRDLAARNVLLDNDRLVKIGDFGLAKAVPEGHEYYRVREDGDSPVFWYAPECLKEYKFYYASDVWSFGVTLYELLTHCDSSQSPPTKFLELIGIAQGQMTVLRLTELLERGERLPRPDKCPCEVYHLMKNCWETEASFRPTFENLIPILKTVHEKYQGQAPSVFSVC
Method: as §1, §2, §3

[5] = HTRF assay, read-out: JAK1 kinase inhibitory activity (EC50 indicator)
[6] = HTRF assay, read-out: JAK2 kinase inhibitory activity (EC50 indicator)
[7] = HTRF assay, read-out: JAK3 kinase inhibitory activity (EC50 indicator)
[8] = HTRF assay, read-out: TYK2 kinase inhibitory activity (EC50 indicator)
[9] = read-out: JAK1 kinase inhibitory activity (EC50 indicator)
[10] = read-out: JAK2 kinase inhibitory activity (EC50 indicator)
[11] = read-out: JAK3 kinase inhibitory activity (EC50 indicator)
[12] = read-out: TYK2 kinase inhibitory activity (EC50 indicator)

| SMILES | EC50 [1, 5] [nM] | EC50 [2, 6] [nM] | EC50 [3, 7] [nM] | EC50 [4, 8] [nM] | EC50 [1, 9] [nM] | EC50 [2, 10] [nM] | EC50 [3, 11] [nM] | EC50 [4, 12] [nM] | further results |
| --- | --- | --- | --- | --- | --- | --- | --- | --- | --- |
| S=C(c1cc2c(s1)CCC2)N1CCN(c2ncnc3[nH]ccc23)CC12CC2 [Example 440, (5,6-Dihydro-4H-cyclopenta[b]thiophen-2-yl)-[7-(7H-pyrrolo[2,3-d]Pyrimidin-4-yl)-4,7-diaza-spiro[2.5]oct-4-yl]-methanethione] | – | – | – | – | – | – | – | – | EC50 ([1]; HTRF assay, read-out: JAK1 kinase inhibitory activity (EC50)): < 100 nM; EC50 ([2]; HTRF assay, read-out: JAK2 kinase inhibitory activity (EC50)): < 100 nM; EC50 ([3]; HTRF assay, read-out: JAK3 kinase inhibitory activity (EC50)): 100 to 500 nM; EC50 ([4]; HTRF assay, read-out: TYK2 kinase inhibitory activity (EC50)): 100 to 500 nM |
| COC(=O)c1cc2c(N3CCN(C(=O)Cc4cccc(CC#N)c4)C4(CC4)C3)ncnc2[nH]1 [Example 121, 4-{4-[2-(3-Cyanomethyl-phenyl)-acetyl]-4,7-diaza-spiro[2.5]oct-7-yl}-7H-pyrrolo[2,3-d]pyrimidine-6-carboxylic acid methyl ester] | – | – | – | – | > 500 | > 500 | > 500 | > 500 | – |
| CC(=O)N1CCCC1C(=O)N1CCN(c2ncnc3[nH]ccc23)CC12CC2 (stereo not drawn) [Example 50, 1-{2-[7-(7H-Pyrrolo[2,3-d]pyrimidin-4-yl)-4,7-diazaspiro[2.5]octane-4-carbonyl]pyrrolidin-1-yl}ethanone] | – | – | – | – | > 500 | > 500 | > 500 | > 500 | – |
| O=C(Cc1c[nH]c2ccccc12)N1CCN(c2ncnc3[nH]ccc23)CC12CC2 [Example 14, 2-(1H-Indol-3-yl)-1-[7-(7H-pyrrolo[2,3-d]pyrimidin-4-yl)-4,7-diazaspiro[2.5]oct-4-yl]ethanone] | – | – | – | – | 100 to 500 | < 100 | 100 to 500 | > 500 | – |
| N#CC1(C(=O)N2CCN(c3ccnc4[nH]ccc34)CC23CC3)CC1 [Example 117, 1-[7-(1H-Pyrrolo[2,3-b]pyridin-4-yl)-4,7-diaza-spiro[2.5]octane-4-carbonyl]-cyclopropanecarbonitrile] | – | – | – | – | 100 to 500 | 100 to 500 | 100 to 500 | > 500 | – |
| Cc1ccc2[nH]c(C(=O)N3CCN(c4ncnc5[nH]ccc45)CC34CC4)cc2c1 [Example 184, (5-Methyl-1H-indol-2-yl)-[7-(7H-pyrrolo[2,3-d]pyrimidin-4-yl)-4,7-diaza-spiro[2.5]oct-4-yl]-methanone] | – | – | – | – | < 100 | < 100 | < 100 | 100 to 500 | – |
| Cc1ccc2sc(C(=O)N3CCN(c4ccnc5[nH]ccc45)CC34CC4)cc2c1 [Example 234, (5-Methyl-benzo[b]thiophen-2-yl)-[7-(1H-pyrrolo[2,3-b]pyridin-4-yl)-4,7-diaza-spiro[2.5]oct-4-yl]-methanone] | 100 to 500 | 100 to 500 | > 500 | > 500 | – | – | – | – | – |
| CCOC(=O)N1[C@@H]2CC[C@H]1CN(c1ncnc3[nH]ccc13)C2 [Example 52, 3-(7H-Pyrrolo[2,3-d]pyrimidin-4-yl)-3,8-diazabicyclo[3.2.1]octane-8-carboxylic acid ethyl ester] | – | – | – | – | 100 to 500 | < 100 | 100 to 500 | 100 to 500 | – |
| N#CCOc1ccc(CC(=O)N2CCN(c3ncnc4[nH]ccc34)CC23CC3)cc1 [Example 69, (4-{2-Oxo-2-[7-(7H-pyrrolo[2,3-d]pyrimidin-4-yl)-4,7-diaza-spiro[2.5]oct-4-yl]-ethyl}-phenoxy)-acetonitrile] | – | – | – | – | < 100 | < 100 | < 100 | > 500 | – |
| CNS(=O)(=O)c1ccc(C(=O)N2CCN(c3ncnc4[nH]ccc34)CC23CC3)cc1 [Example 104, N-Methyl-4-[7-(7H-pyrrolo[2,3-d]pyrimidin-4-yl)-4,7-diaza-spiro[2.5]octane-4-carbonyl]-benzenesulfonamide] | – | – | – | – | < 100 | < 100 | < 100 | < 100 | – |

More lines, main results first:

| EC50 [1, 5] [nM] | EC50 [2, 6] [nM] | EC50 [3, 7] [nM] | EC50 [4, 8] [nM] | EC50 [1, 9] [nM] | EC50 [2, 10] [nM] | EC50 [3, 11] [nM] | EC50 [4, 12] [nM] | SMILES | further results |
| --- | --- | --- | --- | --- | --- | --- | --- | --- | --- |
| < 100 | < 100 | 100 to 500 | > 500 | – | – | – | – | O=C(c1cnccn1)N1[C@@H]2CC[C@H]1CN(c1ncnc3[nH]ccc13)C2 [Example 421, Pyrazin-2-yl-[3-(7H-pyrrolo[2,3-d]pyrimidin-4-yl)-3,8-diaza-bicyclo[3.2.1]oct-8-yl]-methanone] | – |
| > 500 | 100 to 500 | > 500 | > 500 | – | – | – | – | O=C(c1cnccn1)N1CCN(c2ncnc3[nH]cc(Cl)c23)CC12CC2 [Example 314, [7-(5-Chloro-7H-pyrrolo[2,3-d]pyrimidin-4-yl)-4,7-diaza-spiro[2.5]oct-4-yl]-pyrazin-2-yl-methanone] | – |
| < 100 | < 100 | < 100 | 100 to 500 | – | – | – | – | O=C(c1ccc2[nH]ccc2c1)N1[C@@H]2CC[C@H]1CN(c1ncnc3[nH]ccc13)C2 [Example 341, (1H-Indol-5-yl)-[3-(7H-pyrrolo[2,3-d]pyrimidin-4-yl)-3,8-diaza-bicyclo[3.2.1]oct-8-yl]-methanone] | – |
| < 100 | < 100 | < 100 | 100 to 500 | – | – | – | – | O=C(c1cc2ccc(F)cc2[nH]1)N1CCN(c2ncnc3[nH]ccc23)CC12CC2 [Example 363, (6-Fluoro-1H-indol-2-yl)-[7-(7H-pyrrolo[2,3-d]pyrimidin-4-yl)-4,7-diaza-spiro[2.5]oct-4-yl]-methanone] | – |
| < 100 | < 100 | < 100 | 100 to 500 | – | – | – | – | N#Cc1ccc2c(C(=O)N3CCN(c4ncnc5[nH]ccc45)CC34CC4)n[nH]c2c1 [Example 301, 3-[7-(7H-Pyrrolo[2,3-d]pyrimidin-4-yl)-4,7-diaza-spiro[2.5]octane-4-carbonyl]-1H-indazole-6-carbonitrile] | – |
| < 100 | < 100 | < 100 | > 500 | – | – | – | – | NS(=O)(=O)c1cccc(CC(=O)N2CCN(c3ncnc4[nH]ccc34)CC23CC3)c1 [Example 398, 3-{2-Oxo-2-[7-(7H-pyrrolo[2,3-d]pyrimidin-4-yl)-4,7-diaza-spiro[2.5]oct-4-yl]-ethyl}-benzenesulfonamide] | – |
| > 500 | < 100 | 100 to 500 | > 500 | – | – | – | – | N#Cc1cccc(CC(=O)N2CCN(c3ncnc4[nH]cc(Cl)c34)CC23CC3)c1 [Example 323, 3-{2-[7-(5-Chloro-7H-pyrrolo[2,3-d]pyrimidin-4-yl)-4,7-diaza-spiro[2.5]oct-4-yl]-2-oxo-ethyl}-benzonitrile] | – |
| < 100 | < 100 | 100 to 500 | > 500 | – | – | – | – | CC(=O)Nc1ccc(C(=O)N2[C@@H]3CC[C@@H]2CN(c2ncnc4[nH]ccc24)C3)cc1 [Example 354, N-{4-[3-(7H-Pyrrolo[2,3-d]pyrimidin-4-yl)-3,8-diaza-bicyclo[3.2.1]octane-8-carbonyl]-phenyl}-acetamide] | – |

— patent US9346809B2 (LEO PHARMA A/S, priority 2009, dated 2016)
